Measured values reported in patent publication US20120329731A1 (priority 2006, published 2012).
Like-named read-outs stand apart in the source and are kept apart here.

What was measured:
righting reflex = conditions: mouse, in vivo, ip
cyanide poisoning = tested on: cyanide poisoning; set-up: species or system mice; conditions: mouse, in vivo

Row | Structure (SMILES) | Screen Righting time (Ave ± SE) (righting reflex) [s] | % S (percent survivors) (cyanide poisoning) [%] | P.I. (protective index: recovery time CN-treated / recovery time PD-treated) (cyanide poisoning) | Protective Indices compared with the combination of nitrite and thiosulfate (cyanide poisoning; ip) | % S (percent survivors) (cyanide poisoning; po) [%] | antidotal activity when administered by the oral route (cyanide poisoning; po) | P.I. (protective index) (cyanide poisoning) | Screen Righting time (Ave ± SE) (cyanide poisoning) [min]
1 | C/C1=C2/[N-][C@H]([C@H](CC(N)=O)[C@@]2(C)CCC(=O)NC[C@@H](C)OP(=O)([O-])O[C@H]2[C@@H](O)[C@@H](n3cnc4cc(C)c(C)cc43)O[C@@H]2CO)[C@]2(C)N=C(/C(C)=C3N=C(/C=C4N=C1[C@@H](CCC(N)=O)C\4(C)C)[C@@H](CCC(N)=O)[C@]\3(C)CC(N)=O)[C@@H](CCC(N)=O)[C@]2(C)CC(N)=O.[Co+3].[OH-] [H, Hydroxocobalamin, reference compound] | 7.1 ± 0.6 | 100 | 5.2 |  |  |  |  | 
2 | CCOC(=O)C1(O)CSC(O)(C(=O)OCC)CS1 (stereo not shown) [PD 2, 2,5-Dihydroxy-2,5-dicarbethoxy-1,4-dithiane] | 21.2 ± 1.2 | 100 | 7.6 | generally superior | 100 | retain their antidotal activity |  | 
3 | O.O.O.O.O=C(O)C1(O)CSC(O)(C(=O)O)CS1.[Na].[Na] (stereo not shown) [13 (X = Na), Disodium 2,5-dihydroxy-1,4-dithiane-2,5-dicarboxylic acid tetrahydrate] | 14.0 ± 2.3 | 100 |  |  | 100 |  | 4.0 | 17.0 ± 3.3
4 | N[C@@H](CCC(=O)N[C@@H](CSSC[C@H](N)C(=O)O)C(=O)NCC(=O)O)C(=O)O [CySSG, reference compound] | 8.8 ± 2.2 | 100 |  |  | 100 |  | 2.5 | 27.7 ± 2.7
